From PubChem BioAssay AID2060600 (Molecular Pharmacology Branch, DTP, NCI, 2025)
Where “and” joins values, the source holds several entries; their conditions need not be identical. Equal entries are not always repeated.

System: 996289-038-R-J1-PDC complex spheroid viability
Assay: Anticancer human tumor 996289-038-R-J1-PDC patient-derived colon adenocarcinoma cell line growth inhibition [CLK]
Conditions: for viability, T/C: stronger effect = lower value
Outline: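 Patient-derived tumor cells grown as complex spheroids with HUVEC endothelial cells and mesenchymal stem cells, treated with drug combinations. Concentrations descend in half-log steps from near clinical Cmax, or from 10 microM if Cmax unknown.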

[1] = curve of first compound, second compound 0.0316 µM
[2] = curve of first compound, second compound 0.1 µM
[3] = curve of first compound, second compound 0.316 µM
[4] = curve of first compound, second compound 1 µM
[5] = curve of first compound, second compound 3.16 µM
[6] = curve of first compound, second compound 10 µM
[7] = second compound 0.0316 µM, first compound 0.0316 µM
[8] = second compound 0.0316 µM, first compound 0.1 µM
[9] = second compound 0.0316 µM, first compound 0.316 µM
[10] = second compound 0.0316 µM, first compound 1 µM
[11] = second compound 0.0316 µM, first compound 3.16 µM
[12] = second compound 0.0316 µM, first compound 10 µM
[13] = second compound 0.1 µM, first compound 0.0316 µM
[14] = second compound 0.1 µM, first compound 0.1 µM
[15] = second compound 0.1 µM, first compound 0.316 µM
[16] = second compound 0.1 µM, first compound 1 µM
[17] = second compound 0.1 µM, first compound 3.16 µM
[18] = second compound 0.1 µM, first compound 10 µM
[19] = second compound 0.316 µM, first compound 0.0316 µM
[20] = second compound 0.316 µM, first compound 0.1 µM
[21] = second compound 0.316 µM, first compound 0.316 µM
[22] = second compound 0.316 µM, first compound 1 µM
[23] = second compound 0.316 µM, first compound 3.16 µM
[24] = second compound 0.316 µM, first compound 10 µM
[25] = second compound 1 µM, first compound 0.0316 µM
[26] = second compound 1 µM, first compound 0.1 µM
[27] = second compound 1 µM, first compound 0.316 µM
[28] = second compound 1 µM, first compound 1 µM
[29] = second compound 1 µM, first compound 3.16 µM
[30] = second compound 1 µM, first compound 10 µM
[31] = second compound 3.16 µM, first compound 0.0316 µM
[32] = second compound 3.16 µM, first compound 0.1 µM
[33] = second compound 3.16 µM, first compound 0.316 µM
[34] = second compound 3.16 µM, first compound 1 µM
[35] = second compound 3.16 µM, first compound 3.16 µM
[36] = second compound 3.16 µM, first compound 10 µM
[37] = second compound 10 µM, first compound 0.0316 µM
[38] = second compound 10 µM, first compound 0.1 µM
[39] = second compound 10 µM, first compound 0.316 µM
[40] = second compound 10 µM, first compound 1 µM
[41] = second compound 10 µM, first compound 3.16 µM
[42] = second compound 10 µM, first compound 10 µM
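Note: spheroids exposed to the agents for 7 days before readout.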

## C=CC(=O)N1CCN(c2nc(=O)n(-c3c(C)ccnc3C(C)C)c3nc(-c4c(O)cccc4F)c(F)cc23)C(C)C1 (stereo not drawn) + CNC(=O)c1ccc(Nc2nc(OC3CCCC3)c3c(-c4ccc5nc(C)oc5c4)c[nH]c3n2)c(OC)c1
[1]
  IC50: > 10 µM
[2]
  IC50: > 10 µM
[3]
  IC50: > 10 µM
[4]
  IC50: > 10 µM
[5]
  IC50: > 10 µM
[6]
  IC50: > 10 µM
[7]
  viability, T/C: 110%
[8]
  viability, T/C: 105%
[9]
  viability, T/C: 109%
[10]
  viability, T/C: 121%
[11]
  viability, T/C: 126%
[12]
  viability, T/C: 121%
[13]
  viability, T/C: 124%
[14]
  viability, T/C: 109%
[15]
  viability, T/C: 121%
[16]
  viability, T/C: 112%
[17]
  viability, T/C: 137%
[18]
  viability, T/C: 123%
[19]
  viability, T/C: 81%
[20]
  viability, T/C: 76.5%
[21]
  viability, T/C: 76.5%
[22]
  viability, T/C: 89.1%
[23]
  viability, T/C: 88.9%
[24]
  viability, T/C: 82%
[25]
  viability, T/C: 68.7%
[26]
  viability, T/C: 63.5%
[27]
  viability, T/C: 66.8%
[28]
  viability, T/C: 68.3%
[29]
  viability, T/C: 74.1%
[30]
  viability, T/C: 68.7%
[31]
  viability, T/C: 57.1%
[32]
  viability, T/C: 59.5%
[33]
  viability, T/C: 59%
[34]
  viability, T/C: 61.7%
[35]
  viability, T/C: 70.3%
[36]
  viability, T/C: 59.2%
[37]
  viability, T/C: 58.7%
[38]
  viability, T/C: 59.9%
[39]
  viability, T/C: 58%
[40]
  viability, T/C: 64.9%
[41]
  viability, T/C: 70.5%
[42]
  viability, T/C: 56.8%

## C=CC(=O)N1CCN(c2nc(=O)n(-c3c(C)ccnc3C(C)C)c3nc(-c4c(O)cccc4F)c(F)cc23)C(C)C1 (stereo not drawn) + CN1CCN(c2cc(C(=O)Nc3cc4cc(-c5cnn(C)c5)ccc4cn3)ccn2)CC1
[1]
  IC50: > 10 µM
[2]
  IC50: > 10 µM
[3]
  IC50: > 10 µM
[4]
  IC50: < 0.0316 µM
[5]
  IC50: < 0.0316 µM
[6]
  IC50: < 0.0316 µM
[7]
  viability, T/C: 112%
[8]
  viability, T/C: 111%
[9]
  viability, T/C: 111%
[10]
  viability, T/C: 104%
[11]
  viability, T/C: 114%
[12]
  viability, T/C: 109%
[13]
  viability, T/C: 97.5%
[14]
  viability, T/C: 102%
[15]
  viability, T/C: 91.6%
[16]
  viability, T/C: 103%
[17]
  viability, T/C: 102%
[18]
  viability, T/C: 99.3%
[19]
  viability, T/C: 80.5%
[20]
  viability, T/C: 73.1%
[21]
  viability, T/C: 74.2%
[22]
  viability, T/C: 82.5%
[23]
  viability, T/C: 85.3%
[24]
  viability, T/C: 77.7%
[25]
  viability, T/C: 8.05%
[26]
  viability, T/C: 7.07%
[27]
  viability, T/C: 9.28%
[28]
  viability, T/C: 8.41%
[29]
  viability, T/C: 10.3%
[30]
  viability, T/C: 6.56%
[31]
  viability, T/C: 1.21%
[32]
  viability, T/C: 1.63%
[33]
  viability, T/C: 1%
[34]
  viability, T/C: 1.24%
[35]
  viability, T/C: 1.69%
[36]
  viability, T/C: 1.89%
[37]
  viability, T/C: 0.33%
[38]
  viability, T/C: 1.03%
[39]
  viability, T/C: 0.3%
[40]
  viability, T/C: 0.75%
[41]
  viability, T/C: 0.42%
[42]
  viability, T/C: 1.33%

## CNC(=O)c1ccc(Nc2nc(OC3CCCC3)c3c(-c4ccc5nc(C)oc5c4)c[nH]c3n2)c(OC)c1
Compound 0.0316 µM
  viability, T/C: 120% [middle of 12 runs]
Compound 0.1 µM
  viability, T/C: 119% [middle of 12 runs]
Compound 0.316 µM
  viability, T/C: 78.9% [middle of 12 runs]
Compound 1 µM
  viability, T/C: 62.1% [middle of 12 runs]
Compound 3.16 µM
  viability, T/C: 61.1% [middle of 12 runs]
Compound 10 µM
  viability, T/C: 63.1% [middle of 12 runs]
Compound alone, run of 08/15/2023
  IC50: > 10 µM and 8.19 µM

## C#Cc1c(F)ccc2cc(O)cc(-c3ncc4c(N5CC6CCC(C5)N6)nc(OCC56CCCN5CC(F)C6)nc4c3F)c12 (stereo not drawn) + CN1CCN(c2cc(C(=O)Nc3cc4cc(-c5cnn(C)c5)ccc4cn3)ccn2)CC1
[1]
  IC50: 0.965 µM
[2]
  IC50: 0.589 µM
[3]
  IC50: 0.0923 µM
[4]
  IC50: < 0.0316 µM
[5]
  IC50: < 0.0316 µM
[6]
  IC50: < 0.0316 µM
[7]
  viability, T/C: 102%
[8]
  viability, T/C: 92.2%
[9]
  viability, T/C: 64.3%
[10]
  viability, T/C: 52.9%
[11]
  viability, T/C: 34.8%
[12]
  viability, T/C: 28.4%
[13]
  viability, T/C: 85.5%
[14]
  viability, T/C: 71.2%
[15]
  viability, T/C: 58.1%
[16]
  viability, T/C: 45%
[17]
  viability, T/C: 28.6%
[18]
  viability, T/C: 22.2%
[19]
  viability, T/C: 58.7%
[20]
  viability, T/C: 50.2%
[21]
  viability, T/C: 35.9%
[22]
  viability, T/C: 26.7%
[23]
  viability, T/C: 20.7%
[24]
  viability, T/C: 16.6%
[25]
  viability, T/C: 4.83%
[26]
  viability, T/C: 4.1%
[27]
  viability, T/C: 3.5%
[28]
  viability, T/C: 2.81%
[29]
  viability, T/C: 2.14%
[30]
  viability, T/C: 2.96%
[31]
  viability, T/C: 1.47%
[32]
  viability, T/C: 1.31%
[33]
  viability, T/C: 1.59%
[34]
  viability, T/C: 0.95%
[35]
  viability, T/C: 0.67%
[36]
  viability, T/C: 0.45%
[37]
  viability, T/C: 0.72%
[38]
  viability, T/C: 0.61%
[39]
  viability, T/C: 1.23%
[40]
  viability, T/C: 0.99%
[41]
  viability, T/C: 0.36%
[42]
  viability, T/C: 0.65%
